“And” between values parts separate entries of the source, which are not always exact repeats. Identical values can stand only once. Counter-ions that a name gives are not always drawn.

The subject of experiment [1] is 18C-18R duplex (RNase H substrate of HIV-1 RT). As to the kind of experiment: RT-induced RNase H cleavage of the 18C-18R duplex (gel assay). Format: biochemical. To be noted: for hierarchy of the extent of inhibition of RT-induced cleavage: 18C-18R duplex, aminoglycosides 312.5 μM, FIG. 1b, 1d; for inhibition of RT-induced cleavage at the primary site: FIG. 1c. An excerpt: The first model oligonucleotide was a 18mer chimeric duplex (18C-18R). 18C-18R mimics a RNase H substrate during minus-strand strong-stop synthesis. (FIG. 1a). Mueller, U. et al. Crystal structure of an eight-base pair duplex containing the 3′-DNA RNA-5′ junction formed during initiation of minus-strand synthesis of HIV replication, Biochemistry 37,12005-12011 (1998). […] Note that RT cleaves the RNA strand (18R) opposite the chimeric RNA-DNA strand (18C) at three sites (FIGS. 1a, b). The primary cleavage site lies between base positions +1 and +2 (counting from the RNA-DNA junction in the 5′ direction on the cleaved RNA strand). Two other minor cleavage sites lie between positions +3 and +4 and between positions −1 and +1, with the former site being cleaved to a greater extent than the latter site. Götte, M. et al., HIV-1 Reverse transcriptase-associated RNase H cleaves RNA/RNA in arrested complexes: Implications for the mechanism by which RNase H discriminates between RNA/RNA and RNA/DNA, EMBO J. 14, 833-841 (1995).
Recombinant HIV-1 RT p66 was isolated from Escherichia coli JM 109. Pandey, V. N. et al, Role of methionine 184 of human immunodeficiency virus type-1 reverse transcriptase in the polymerase function and fidelity of DNA synthesis, Biochemistry 35, 2168-2179 (1996). The 18C and 18R oligonucleotides were purchased from Dharmacon Research, Inc. (Lafayette, Colo.). The 18D oligonucleotide was obtained from Integrated DNA Technologies, Inc. (Coralville, Iowa). Neomycin trisulfate trihydrate, the free base of tobramycin, paromomycin sulfate, and kanamycin B sulfate were obtained from Fluka, while kanamycin A monosulfate and ribostamycin sulfate dihydrate were obtained from Sigma.
The RNase H activity of RT was assayed in a 10 μl reaction mixture containing 10 mM PIPES (pH 6.0) and 5 mM MgCl2. Ten pmol of either 18C or 18R were ^32P-labeled at the 5′ end using T4 polynucleotide kinase. For the cleavage experiments, different aminoglycosides were mixed with 0.5 μM of target duplex. A small amount of RT, 0.1 μg, was then added to initiate the cleavage reaction. After incubation at 37° C. for 30 min, the reaction was stopped by addition of 3 M urea containing a mixture of bromophenol blue and xylene cyanol. Denaturation of the 18C-18R duplex required the addition of 5 M urea as well as heating at 95° C. for 5 min prior to gel loading. The cleavage products were resolved in a 10% polyacrylamide gel containing 8 M urea. The gels were subsequently analyzed using a phosphoimager (Molecular Dynamics, Inc.).

Another experiment relates to 18C-18R duplex. As to the kind of experiment: UV melting (thermal denaturation) and ΔTm analysis, 18C-18R duplex. Format: binding, HIV-1. To be noted: for Ka (ΔTm-derived association constant): extrapolated to 25° C.; for greater affinity for the 18C-18R duplex than for the 18C-18D duplex: 18C-18R versus 18C-18D; for enhancement of thermal stability of the duplex (ΔTm): 18C-18R, drug to duplex ratio (rdup) 3.0, FIG. 3a. How it is done:
(§1) All UV absorbance experiments were conducted on an AVIV Model 14DS Spectrophotometer (Aviv Associates; Lakewood, N.J.) equipped with a thermoelectrically controlled cell holder. A quartz cell with a 1 cm pathlength was used for all the absorbance studies. Absorbance versus temperature profiles were measured at 274 nm with a 6 sec averaging time. The temperature was raised in 0.5° C. increments, and the samples were allowed to equilibrate for 1 min at each temperature setting. In these thermal denaturation studies, 18C-18R and 18C-18D solutions were […] in duplex and contained aminoglycoside at concentrations ranging from 0 to 12 μM. The duplex solutions were preheated for 5 min at 85° C. and then cooled to room temperature prior to addition of the drug. The buffer solutions for the UV melting experiments contained 10 mM PIPES (pH 6.0) and 5 mM MgCl2. For each optically detected transition, the melting temperature (Tm) was determined. Marky, L. A. & Breslauer, K. J. Calculating thermodynamic data for transitions of any molecularity from equilibrium melting curves, Biopolymers 26, 1601-1620 (1987).
(§2) The ΔTm method described below was used to derive aminoglycoside-duplex association constants (Ka). Measured aminoglycoside-induced changes in the thermal stability of the host duplexes (FIG. 3) were used to estimate the apparent drug-duplex association constants at Tm (KTm) from the following expression (Crothers, D. M. Statistical thermodynamics of nucleic acid melting transitions with coupled binding equilibria, Biopolymers 10, 2147-2160 (1971)): [formula]
(§3) In this expression, TmO and Tm are the melting temperatures of the drug-free and drug-bound duplex, respectively, n is the number of drug molecules bound per duplex, ΔHdup is the enthalpy change for the melting of the duplex in the absence of bound drug, and L is the free drug concentration at Tm (which can be estimated by one half the total drug concentration). Values of ΔHdup for the 18C-18R and 18C-18D duplexes were determined from the shapes of their UV melting profiles using the following relationship (Marky, L. A. & Breslauer, K. J. Calculating thermodynamic data for transitions of any molecularity from equilibrium melting curves, Biopolymers 26, 1601-1620 (1987)): [formula]
(§4) where α is the fraction of single strand. This calculation yielded ΔHdup values of 157.8 kcal/mol for the 18C-18R duplex and 130.3 kcal/mol for the 18C-18D duplex. For meaningful comparisons, the calculated apparent binding constants at Tm should be extrapolated to a common reference temperature using the standard relationship: [formula]
(§5) where ΔHb is the enthalpy of drug binding.

The subject of a further experiment is 18C-18D duplex. As to the kind of experiment: UV melting (thermal denaturation) and ΔTm analysis, 18C-18D duplex. To be noted: for Ka (ΔTm-derived association constant): extrapolated to 25° C.; for enhancement of thermal stability of the duplex (ΔTm): 18C-18D, drug to duplex ratio (rdup) 3.0, FIG. 3b. Format: binding, HIV-1. The method, then:
as §1, §2, §3, §4, §5

With `NC[C@@H]1O[C@H](O[C@H]2[C@@H](O)[C@H](O[C@@H]3[C@@H](O)[C@H](N)C[C@H](N)[C@H]3O[C@H]3O[C@H](CO)[C@@H](O)[C@H](O)[C@H]3N)O[C@@H]2CO)[C@H](N)[C@@H](O)[C@@H]1O` [paromomycin, paromomycin sulfate], the “hierarchy of the extent of inhibition of RT-induced cleavage” value in experiment [1] was “neomycin>paromomycin>tobramycin>kanamycin B>ribostamycin>>kanamycin A”. The “Ka (ΔTm-derived association constant)” value was “(4.3 ± 1.6) × 10^5 M^−1” in the experiment with 18C-18R duplex (18C-18R duplex) and “(1.9 ± 0.8) × 10^5 M^−1” with 18C-18D duplex (18C-18D duplex). The “greater affinity for the 18C-18R duplex than for the 18C-18D duplex” value in the experiment with 18C-18R duplex is 2 fold. The entries for the “enhancement of thermal stability of the duplex (ΔTm)” value in the experiment on 18C-18R duplex and in the experiment on 18C-18D duplex were 1.4 °C and 1.1 °C, respectively.
On to Neomycin trisulfate trihydrate, for which the “hierarchy of the extent of inhibition of RT-induced cleavage” value in experiment [1] is listed as “neomycin>paromomycin>tobramycin>kanamycin B>ribostamycin>>kanamycin A”. In addition, the “inhibition of RT-induced cleavage at the primary site” value in experiment [1] (neomycin to binding site ratio of 1 (stoichiometric concentration)) is 80%; in experiment [1] (neomycin to binding site ratio of 5) it was “total inhibition”. Moreover, the figures for the “difference in affinity, neomycin greater than paromomycin” value in the experiment with 18C-18R duplex (18C-18R duplex) and with 18C-18D duplex (18C-18D duplex) were 20 fold and 9 fold, respectively. In addition, the entries for the “Ka (ΔTm-derived association constant)” value with 18C-18R duplex (18C-18R duplex) and with 18C-18D duplex (18C-18D duplex) were “(8.6 ± 1.5) × 10^6 M^−1” and “(1.7 ± 0.3) × 10^6 M^−1”, respectively. The “greater affinity for the 18C-18R duplex than for the 18C-18D duplex” value with 18C-18R duplex (trisulfate trihydrate) was “≈ 5 fold and 5 fold”. The “enhancement of thermal stability of the duplex (ΔTm)” value worked out at 4.8 °C in the experiment with 18C-18R duplex and 4.1 °C in the experiment on 18C-18D duplex.

The values above are taken from patent US20030069194A1, “Inhibition of viral replication by targeting RNA-DNA complexes” (priority 2001, published 2003).
